# Experimental data reported in US7595398B2, “N-(5-membered aromatic ring)-amido anti-viral compounds” (SmithKline Beecham Corporation, priority 2005, dated 2009).
# System: HCV replicon I389luc-ubi-neo/NS3-3′/ET in ET (Huh-lucubineo-ET) cells; screening for HCV RNA dependent RNA polymerase
# Assay: Replicon Assay (luciferase, ET cell line Huh-lucubineo-ET)
# Assay type: cell-based
# Conditions: Hepatitis C virus; inhibition of replication relative to no compound control; test concentration of 10 μM according to the fitted equation; luciferase 48-72 hours
# In short: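 Huh-derived ET cells stably carrying an I389luc-ubi-neo/NS3-3′/ET HCV replicon with a luciferase-ubiquitin-neomycin phosphotransferase fusion and adaptive NS3-5B mutations were cultured in DMEM with 10% fetal calf serum and 250 μg/mL G418. Cells were seeded at 0.5-1.0×10^4 cells/well in 96 well plates and given compound after 24 hrs. Luciferase was read 48-72 hours later with Bright-Glo reagents, and replication inhibition was expressed relative to untreated controls.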
row,SMILES,inhibition at 10 µM [%]
1,"O=C(Nc1nc(-c2ccc(-n3nncc3-c3ccccc3)cc2)cs1)[C@@H]1CCCN1C(=O)OCc1ccccc1 [Compound 5104, 2-{4-[4-(5-Phenyl-[1,2,3]triazol-1-yl)-phenyl]-thiazol-2-ylcarbamoyl}-pyrrolidine-1-carboxylic acid benzyl ester]",97.3
2,"CNC(=O)c1ccc(-c2csc(NC(=O)[C@@H]3CCCN3C(=O)OCc3ccccc3)n2)cc1 [Compound 5105, 2-[4-(4-Methylcarbamoyl-phenyl)-thiazol-2-ylcarbamoyl]-pyrrolidine-1-carboxylic acid benzyl ester]",100
3,"O=C(O)c1ccc(-c2csc(NC(=O)[C@@H]3CCCN3C(=O)OCc3ccccc3)n2)cc1 [Compound 5106, 2-[4-(4-Carboxy-phenyl)-thiazol-2-ylcarbamoyl]-pyrrolidine-1-carboxylic acid benzyl ester]",46.3
4,"O=C(Nc1cccc(-c2cnc(NC(=O)[C@@H]3CCCN3C(=O)OCc3ccccc3)s2)c1)C1CC1 [Compound 5108, 2-{5-[3-(Cyclopropanecarbonyl-amino)-phenyl]-thiazol-2-ylcarbamoyl}-pyrrolidine-1-carboxylic acid benzyl ester]",98.9
5,"O=C(Nc1ccccc1)c1ccc(-c2csc(NC(=O)C3CCCN3C(=O)OCc3ccccc3)n2)cc1 (stereo not shown) [Compound 5109, 2-[4-(4-Phenylcarbamoyl-phenyl)-thiazol-2-ylcarbamoyl]-pyrrolidine-1-carboxylic acid benzyl ester]",100
6,"O=C(Nc1ccc(-c2cnc(NC(=O)[C@@H]3CCCN3C(=O)OCc3ccccc3)s2)cc1)C1CCCC1 [Compound 5110, 2-{5-[4-(Cyclopentanecarbonyl-amino)-phenyl]-thiazol-2-ylcarbamoyl}-pyrrolidine-1-carboxylic acid benzyl ester]",89.6
7,"Nc1ccc(-c2cnc(NC(=O)[C@@H]3CCCN3C(=O)OCc3ccccc3)s2)cc1 [Compound 5111, 2-[5-(4-Amino-phenyl)-thiazol-2-ylcarbamoyl]-pyrrolidine-1-carboxylic acid benzyl ester]",40
8,"O=C(Nc1cccc(-c2cnc(NC(=O)[C@@H]3CCCN3C(=O)OCc3ccccc3)s2)c1)c1ccccc1 [Compound 5113, 2-[5-(3-Benzoylamino-phenyl)-thiazol-2-ylcarbamoyl]-pyrrolidine-1-carboxylic acid benzyl ester]",99.7
9,"Nc1cccc(-c2cnc(NC(=O)[C@@H]3CCCN3C(=O)OCc3ccccc3)s2)c1 [Compound 5114, 2-[5-(3-Amino-phenyl)-thiazol-2-ylcarbamoyl]-pyrrolidine-1-carboxylic acid benzyl ester]",25
10,"O=C(Nc1cccc(-c2cnc(NC(=O)[C@@H]3CCCN3C(=O)OCc3ccccc3)s2)c1)C1CCCC1 [Compound 5116, 2-{5-[3-(Cyclopentanecarbonyl-amino)-phenyl]-thiazol-2-ylcarbamoyl}-pyrrolidine-1-carboxylic acid benzyl ester]",100
11,"CC(C)NC(=O)c1ccc(-c2csc(NC(=O)C3CCCN3C(=O)OCc3ccccc3)n2)cc1 (stereo not shown) [Compound 5117, 2-[4-(4-Isopropylcarbamoyl-phenyl)-thiazol-2-ylcarbamoyl]-pyrrolidine-1-carboxylic acid benzyl ester]",99.8
12,"O=C(NC1CC1)c1ccc(-c2csc(NC(=O)[C@@H]3CCN3C(=O)OCc3ccccc3)n2)cc1 [Compound 5301, 2-[4-(4-Cyclopropylcarbamoyl-phenyl)-thiazol-2-ylcarbamoyl]-azetidine-1-carboxylic acid benzyl ester]",100
13,"O=C(Nc1ccncc1)c1ccc(-c2csc(NC(=O)[C@@H]3CCCN3C(=O)OCc3ccccc3)n2)cc1 [Compound 5302, 2-{4-[4-(Pyridin-4-ylcarbamoyl)-phenyl]-thiazol-2-ylcarbamoyl}-pyrrolidine-1-carboxylic acid benzyl ester]",100
14,"O=C(NC1CCCCC1)c1ccc(-c2csc(NC(=O)[C@@H]3CCCN3C(=O)OCc3ccccc3)n2)cc1 [Compound 5303, 2-[4-(4-Cyclohexylcarbamoyl-phenyl)-thiazol-2-ylcarbamoyl]-pyrrolidine-1-carboxylic acid benzyl ester]",100
15,"N#Cc1ccc(-c2csc(NC(=O)[C@@H]3CCCN3C(=O)OCc3ccccc3)n2)cc1 [Compound 5305, 2-[4-(4-Cyanophenyl)-thiazol-2-ylcarbamoyl]-pyrrolidine-1-carboxylic acid benzyl ester]",76.3
16,"CC(C)(CN1CCOCC1)NC(=O)c1ccc(-c2csc(NC(=O)[C@@H]3CCCN3C(=O)OCc3ccccc3)n2)cc1 [Compound 5306, 2-{4-[4-(1,1-Dimethyl-2-morpholin-4-yl-ethylcarbamoyl)-phenyl]-thiazol-2-ylcarbamoyl}-pyrrolidine-1-carboxylic acid benzyl ester]",100

row,SMILES,inhibition at 10 µM [%]
1,"O=C(NCCN1CCCCC1)c1ccc(-c2csc(NC(=O)[C@@H]3CCCN3C(=O)OCc3ccccc3)n2)cc1 [Compound 5307, 2-{4-[4-(2-Piperidin-1-yl-ethylcarbamoyl)-phenyl]-thiazol-2-ylcarbamoyl}-pyrrolidine-1-carboxylic acid benzyl ester]",100
2,"O=C(Nc1nc(-c2ccc(C(=S)NC3CC3)cc2)cs1)[C@@H]1CCCN1C(=O)OCc1ccccc1 [Compound 5308, 2-[4-(4-Cyclopropylthiocarbamoyl-phenyl)-thiazol-2-ylcarbamoyl]-pyrrolidine-1-carboxylic acid benzyl ester]",100
3,"CC(=O)c1ccc(-c2csc(NC(=O)[C@@H]3CCCN3C(=O)OCc3ccccc3)n2)cc1 [Compound 5309, 2-[4-(4-Acetyl-phenyl)-thiazol-2-ylcarbamoyl]-pyrrolidine-1-carboxylic acid benzyl ester]",99.5
4,"O=C(Nc1ccc(-c2csc(NC(=O)[C@@H]3C[C@@H](O)CN3C(=O)OCc3ccccc3)n2)cc1)C1CC1 [Compound 5310, 2-{4-[4-(Cyclopropanecarbonyl-amino)-phenyl]-thiazol-2-ylcarbamoyl}-4-hydroxy-pyrrolidine-1-carboxylic acid benzyl ester]",99.3
5,"O=C(NC1CC1)c1ccc(-c2csc(NC(=O)C3COCN3C(=O)OCc3ccccc3)n2)cc1 (stereo not shown) [Compound 5311, 4-[4-(4-Cyclopropylcarbamoyl-phenyl)-thiazol-2-ylcarbamoyl]-oxazolidine-3-carboxylic acid benzyl ester]",99.7
6,"O=C(NC1CC1)c1ccc(-c2csc(NC(=O)[C@@H]3COCN3C(=O)OCc3ccccc3)n2)cc1 [Compound 5313, 4-[4-(4-Cyclopropylcarbamoyl-phenyl)-thiazol-2-ylcarbamoyl]-oxazolidine-3-carboxylic acid benzyl ester]",100
7,"NC(=O)Nc1ccc(-c2csc(NC(=O)[C@@H]3CCCN3C(=O)OCc3ccccc3)n2)cc1 [Compound 5314, 2-[4-(4-Ureido-phenyl)-thiazol-2-ylcarbamoyl]-pyrrolidine-1-carboxylic acid benzyl ester]",100
8,"O=C(NC1CC1)c1ccc(-c2csc(NC(=O)[C@@H]3CCCN3C(=O)Cc3cc(F)cc(F)c3)n2)cc1 [Compound 5315, 1-[2-(3,5-Difluoro-phenyl)-acetyl]-pyrrolidine-2-carboxylic acid [4-(4-cyclopropylcarbamoyl-phenyl)-thiazol-2-yl]-amide]",99.7
9,"O=C(NC1CC1)c1ccc(-c2csc(NC(=O)[C@@H]3CCCN3CCc3ccccc3)n2)cc1 [Compound 5316, 1-Phenethyl-pyrrolidine-2-carboxylic acid [4-(4-cyclopropylcarbamoyl-phenyl)-thiazol-2-yl]-amide]",3.19
10,"O=C(NCCCO)c1ccc(-c2csc(NC(=O)[C@@H]3CCCN3C(=O)OCc3ccccc3)n2)cc1 [Compound 5317, 2-{4-[4-(3-Hydroxy-propylcarbamoyl)-phenyl]-thiazol-2-ylcarbamoyl}-pyrrolidine-1-carboxylic acid benzyl ester]",100
11,"O=C(Nc1nc(-c2cccc(NCC3CCCC3)c2)cs1)[C@@H]1CCCN1C(=O)OCc1ccccc1 [Compound 5319, 2-{4-[3-(Cyclopentylmethyl-amino)-phenyl]-thiazol-2-ylcarbamoyl}-pyrrolidine-1-carboxylic acid benzyl ester]",67.4
12,"O=C(NC1CC1)c1ccc(-c2csc(NC(=O)C3CCCN3C(=O)OCc3cccnc3)n2)cc1 (stereo not shown) [Compound 5320, 2-[4-(4-Cyclopropylcarbamoyl-phenyl)-thiazol-2-ylcarbamoyl]-pyrrolidine-1-carboxylic acid pyridin-3-ylmethyl ester]",99.8
13,"O=C(NC1CC1)c1ccc(-c2csc(NC(=O)[C@@H]3CCCN3C(=O)c3ccncc3)n2)cc1 [Compound 5321, 1-(Pyridine-4-carbonyl)-pyrrolidine-2-carboxylic acid [4-(4-cyclopropylcarbamoyl-phenyl)-thiazol-2-yl]-amide]",91.3
14,"O=C(NC1CCNC1)c1ccc(-c2csc(NC(=O)[C@@H]3CCCN3C(=O)OCc3ccccc3)n2)cc1 (stereo partly shown) [Compound 5322, 2-{4-[4-(Pyrrolidin-3-ylcarbamoyl)-phenyl]-thiazol-2-ylcarbamoyl}-pyrrolidine-1-carboxylic acid benzyl ester]",100
15,"O=C(NC1CC1)c1ccc(-c2csc(NC(=O)[C@@H]3CCCN3C(=O)Cc3ccc(F)cc3)n2)cc1 [Compound 5323, 1-[2-(4-Fluoro-phenyl)-acetyl]-pyrrolidine-2-carboxylic acid [4-(4-cyclopropylcarbamoyl-phenyl)-thiazol-2-yl]-amide]",81.5
